How the values were obtained:
Experiment in all cases: combination Emax (second highest fraction inhibited in the dose matrix, 72 h); higher = more inhibition; extreme values may be limits of the assay
[1] = system: MFM-223 (Breast Carcinoma)
Method in brief: (§1)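 Bliss excess equals the observed combination effect minus the expected value EA + EB − EA·EB, where EA and EB are the effects of each agent alone. Combination Emax is the second-highest inhibition within the matrix. Inhibition was scaled from CellTiter-Glo 2.0 luminescence, with 0 set by vehicle wells and 1 by blank wells, after 72 hours of two-drug dosing of cells plated in 1536-well plates.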

[2] = system: DiFi (Colorectal Carcinoma)
Method in brief: as §1

[3] = system: SR (Other Blood Carcinomas)
Method in brief: as §1

TC-71 (Ewing's Sarcoma) = system: TC-71 (Ewing's Sarcoma)
Method in brief: as §1

NCI-H2818 (Mesothelioma) = system: NCI-H2818 (Mesothelioma)
Method in brief: as §1

[4] = system: COLO-678 (Colorectal Carcinoma)
Method in brief: as §1

[5] = system: KM12 (Colorectal Carcinoma)
Method in brief: as §1

WM-115 (Melanoma) = system: WM-115 (Melanoma)
Method in brief: as §1

[6] = system: BL-41 (Burkitt's Lymphoma)
Method in brief: as §1

[7] = system: DND-41 (T-Lymphoblastic Leukemia)
Method in brief: as §1

LN-18 (Glioblastoma) = system: LN-18 (Glioblastoma)
Method in brief: as §1

[8] = system: P12-ICHIKAWA (T-Lymphoblastic Leukemia)
Method in brief: as §1

ES1 (Ewing's Sarcoma) = system: ES1 (Ewing's Sarcoma)
Method in brief: as §1

[9] = system: KCL-22 (Chronic Myelogenous Leukemia)
Method in brief: as §1

ES8 (Ewing's Sarcoma) = system: ES8 (Ewing's Sarcoma)
Method in brief: as §1

[10] = system: NCI-H1792 (Lung Adenocarcinoma)
Method in brief: as §1

[11] = system: GR-ST (B-Lymphoblastic Leukemia)
Method in brief: as §1

[12] = system: NCI-H847 (Small Cell Lung Carcinoma)
Method in brief: as §1

[13] = system: HDQ-P1 (Breast Carcinoma)
Method in brief: as §1

[14] = system: MOLT-16 (T-Lymphoblastic Leukemia)
Method in brief: as §1

Row | Compound | combination Emax [1] | combination Emax [2] | combination Emax [3] | combination Emax (TC-71 (Ewing's Sarcoma)) | combination Emax (NCI-H2818 (Mesothelioma)) | combination Emax [4] | combination Emax [5] | combination Emax (WM-115 (Melanoma)) | combination Emax [6] | combination Emax [7] | combination Emax (LN-18 (Glioblastoma)) | combination Emax [8] | combination Emax (ES1 (Ewing's Sarcoma)) | combination Emax [9] | combination Emax (ES8 (Ewing's Sarcoma)) | combination Emax [10] | combination Emax [11] | combination Emax [12] | combination Emax [13] | combination Emax [14]
1 | Cc1c2c(nn1C)CSCc1cc(n(C)n1)CSc1cc(c3ccccc3c1)OCCCc1c(C(=O)O)n(C)c3c-2c(Cl)ccc13 [AZD5991] + C[C@@H]1COCCN1C2=NC(=NC(=C2)C3(CC3)[S@](=N)(=O)C)C4=C5C=CNC5=NC=C4 [AZD6738] (first compound max 1 µM, 7x7, partner max 10 µM) | 0.824 | 0.923 | 1 | 0.987 | 0.496 | 0.241 | 0.746 | 0.471 | 1 | 0.9 | 0.842 | 1 | 1 | 0.997 | 0.891 | 0.731 | 0.716 | 0.994 | 0.387 | 1
2 | Cc1c2c(nn1C)CSCc1cc(n(C)n1)CSc1cc(c3ccccc3c1)OCCCc1c(C(=O)O)n(C)c3c-2c(Cl)ccc13 [AZD5991] + C[C@@H](Nc1cc(F)cc(F)c1)c1cc(C(=O)N(C)C)cc2c(=O)cc(N3CCOCC3)oc12 [AZD8186] (first compound max 1 µM, 7x7, partner max 3 µM) | 0.258 | 0.35 | 0.954 | 0.573 | 0.387 | 0.278 | 0.205 | 0.656 | 1 | 0.0838 | 0.573 | 0.964 | 0.904 | 0.87 | 0.613 | 0.441 | 0.257 | 0.792 | 0.237 | 1
3 | Cc1c2c(nn1C)CSCc1cc(n(C)n1)CSc1cc(c3ccccc3c1)OCCCc1c(C(=O)O)n(C)c3c-2c(Cl)ccc13 [AZD5991] + Cc1cc2ncnn2cc1Nc1ncc2c(n1)n(C1CCOCC1)c(=O)n2C [AZD7648] (first compound max 1 µM, 7x7, partner max 10 µM) | 0.288 | 0.319 | 0.984 | 0.48 | 0.48 | 0.152 | 0.208 | 0.357 | 1 | 0.164 | 0.35 | 1 | 0.798 | 0.94 | 0.455 | 0.441 | 0.464 | 0.877 | 0.257 | 1
4 | Cc1c2c(nn1C)CSCc1cc(n(C)n1)CSc1cc(c3ccccc3c1)OCCCc1c(C(=O)O)n(C)c3c-2c(Cl)ccc13 [AZD5991] + Cn1cnc2c(F)c(Nc3ccc(Br)cc3Cl)c(C(=O)NOCCO)cc21 [Selumetinib] (first compound max 1 µM, 7x7, partner max 3 µM) | 0.282 | 0.875 | 0.952 | 0.578 | 0.293 | 0.423 | 0.638 | 0.68 | 1 | 0.181 | 0.315 | 1 | 0.777 | 0.959 | 0.521 | 0.704 | 0.0688 | 0.863 | 0.211 | 1
5 | COc1cccc(OCCCN)c1-c1cc(Nc2cnc(C#N)cn2)n[nH]1 [Prexasertib] + CCc1c2c(nc3ccc(O)cc13)-c1cc3c(c(=O)n1C2)COC(=O)[C@]3(O)CC [SN-38] (first compound max 1 µM, 7x7, partner max 0.3 µM) | 0.881 | 0.931 | 0.998 | 1 | 0.423 | 0.26 | 0.939 | 0.514 | 1 | 0.943 | 1 | 1 | 1 | 0.989 | 0.989 | 0.893 | 0.871 | 1 | 0.944 | 1
6 | CC(=O)Nc1cccc(-n2c(=O)n(C3CC3)c(=O)c3c(Nc4ccc(I)cc4F)n(C)c(=O)c(C)c32)c1 [Trametinib] + Cc1nc(-c2cn3c(n2)-c2ccc(-c4cnn(C(C)(C)C(N)=O)c4)cc2OCC3)n(C(C)C)n1 [Taselisib] (first compound max 1 µM, 7x7, partner max 10 µM) | 0.865 | 1 | 0.719 | 0.714 | 0.428 | 0.608 | 0.84 | 0.951 | 0.319 | 0.369 | 0.847 | 0.658 | 0.651 | 0.801 | 0.844 | 1 | 0.633 | 0.782 | 0.915 | 0.776
7 | CC1(C)CCC(CN2CCN(c3ccc(C(=O)NS(=O)(=O)c4ccc(NCC5CCOCC5)c([N+](=O)[O-])c4)c(Oc4cnc5[nH]ccc5c4)c3)CC2)=C(c2ccc(Cl)cc2)C1 [Venetoclax] + C1CN(CCC1(C(=O)N[C@@H](CCO)C2=CC=C(C=C2)Cl)N)C3=NC=NC4=C3C=CN4 [Capivasertib] (first compound max 1 µM, 7x7, partner max 3 µM) | 0.639 | 0.34 | 0.835 | 0.257 | 0.175 | 0.0815 | 0.501 | 0.397 | 0.252 | 0.921 | 0.365 | 0.49 | 0.547 | 0.183 | 0.532 | 0.223 | 0.696 | 0.829 | 0.205 | 1
8 | CC1(C)CCC(CN2CCN(c3ccc(C(=O)NS(=O)(=O)c4ccc(NCC5CCOCC5)c([N+](=O)[O-])c4)c(Oc4cnc5[nH]ccc5c4)c3)CC2)=C(c2ccc(Cl)cc2)C1 [Venetoclax] + C=CCn1c(=O)c2cnc(Nc3ccc(N4CCN(C)CC4)cc3)nc2n1-c1cccc(C(C)(C)O)n1 [AZD1775] (first compound max 1 µM, partner max 1 µM) | 0.457 | 0.674 | 0.995 | 0.424 | 0.331 | 0.328 | 0.781 | 0.27 | 1 | 1 | 0.555 | 0.966 | 0.946 | 0.943 | 0.94 | 0.828 | 0.813 | 0.992 | 0.532 | 1
9 | CC1(C)CCC(CN2CCN(c3ccc(C(=O)NS(=O)(=O)c4ccc(NCC5CCOCC5)c([N+](=O)[O-])c4)c(Oc4cnc5[nH]ccc5c4)c3)CC2)=C(c2ccc(Cl)cc2)C1 [Venetoclax] + CCN(CCO)CCCOc1ccc2c(Nc3cc(CC(=O)Nc4cccc(F)c4)[nH]n3)ncnc2c1 [AZD2811] (first compound max 1 µM, 7x7, partner max 1 µM) | 0.252 | 0.486 | 0.946 | 0.88 | 0.251 | 0.245 | 0.17 | 0.211 | 0.604 | 0.94 | 0.488 | 1 | 0.759 | 0.376 | 1 | 0.216 | 0.648 | 1 | 0.172 | 1
10 | CC1(C)CCC(CN2CCN(c3ccc(C(=O)NS(=O)(=O)c4ccc(NCC5CCOCC5)c([N+](=O)[O-])c4)c(Oc4cnc5[nH]ccc5c4)c3)CC2)=C(c2ccc(Cl)cc2)C1 [Venetoclax] + CN(C)CCCOc1ccc(-c2ccc3ncc4c(c3c2)n(C2CCOCC2)c(=O)n4C)cn1 [AZD0156] (first compound max 1 µM, 7x7, partner max 1 µM) | 0.155 | 0.288 | 0.907 | 0.294 | 0.284 | 0.187 | 0.17 | 0.179 | 0.163 | 0.893 | 0.329 | 0.224 | 0.82 | 0.212 | 0.869 | 0.223 | 0.704 | 0.378 | 0.139 | 0.699
11 | CC1(C)CCC(CN2CCN(c3ccc(C(=O)NS(=O)(=O)c4ccc(NCC5CCOCC5)c([N+](=O)[O-])c4)c(Oc4cnc5[nH]ccc5c4)c3)CC2)=C(c2ccc(Cl)cc2)C1 [Venetoclax] + COc1cc(Nc2ncc3c(n2)-c2ccc(Cl)cc2C(c2c(F)cccc2OC)=NC3)ccc1C(=O)O [Alisertib] (first compound max 1 µM, 7x7, partner max 10 µM) | 0.849 | 0.559 | 0.966 | 0.855 | 0.36 | 0.181 | 0.598 | 0.379 | 0.978 | 0.947 | 0.787 | 0.953 | 0.842 | 0.811 | 0.962 | 0.65 | 0.631 | 1 | 0.41 | 1
12 | CC1(C)CCC(CN2CCN(c3ccc(C(=O)NS(=O)(=O)c4ccc(NCC5CCOCC5)c([N+](=O)[O-])c4)c(Oc4cnc5[nH]ccc5c4)c3)CC2)=C(c2ccc(Cl)cc2)C1 [Venetoclax] + C[C@@H]1COCCN1C2=NC(=NC(=C2)C3(CC3)[S@](=N)(=O)C)C4=C5C=CNC5=NC=C4 [AZD6738] (first compound max 1 µM, 7x7, partner max 10 µM) | 0.752 | 0.81 | 0.973 | 0.954 | 0.394 | 0.164 | 0.641 | 0.524 | 0.999 | 0.987 | 0.745 | 0.986 | 0.942 | 0.951 | 0.934 | 0.725 | 0.762 | 0.999 | 0.399 | 1
